According to patent publication US12070505B2, “Targeted peptide-drug conjugates” (priority 2021, dated 2024):
≈ marks a conversion by molar mass, not a printed value. Where “and” joins values, the source holds several entries; their conditions need not be identical. Equal values may be shown once.

What was measured:
MES-SA/MX2 cells [1] = assay: MTS cytotoxicity assay of [(WR)8WKβA]-Dox, MES-SA/MX2; conditions: 5 μM
Experimental: (§1) Cytotoxic activity of the synthesized conjugate and noncovalent mixtures of cyclic [WR]9+Dox was determined in SK-OV-3, MDA-MB-231, MCF-7, MES-SA/MX2, and H9C2 cells. […] An appropriate growth medium was used for each cell line (for SK-OV-3: McCoy's […] with L-glutamine containing fetal bovine serum (FBS) (10%) and penicillin or streptomycin (1%); for MDA-MB-231 and MCF-7 cells: DMEM/F12 (1:1) (1×) with L-Glutamine and 15 mM HEPES containing FBS (10%) and penicillin or streptomycin (1%), and for MES-SA/MX2 and H9C2 cells: Minimum Essential Medium Eagle with Earle's salts and sodium bicarbonate, without L-glutamine containing FBS (10%), and penicillin or streptomycin (1%)). The cells were seeded in a complete growth medium 24 h prior to the experiment. […] The incubation was continued for 3 h.

[2] = system: gastric adenocarcinoma cells (AGS); assay: Cytotoxicity, MTS cell viability assay, AGS; conditions: 5 μM
Experimental: (§5) In Vitro Cytotoxicity Assay of Peptide-Drug Conjugates. […] In brief, CCRF-CEM cells were seeded at 50,000 cells in 0.1 mL per well in 98-well plates. In the case of other cell lines, the cells were seeded at 5,000 cells (0.1 mL per well in 96-well plates). […] Dox (5 μM) was used as a positive control, while water and cell culture medium were used as negative controls. The compounds were dissolved in water; water was used as a negative control to normalize the data. After the incubation period, MTS reagent (20 μL) was added to each well. The incubation was continued for 2 h. Cell viability was then determined by determination of the fluorescence intensity at 490 nm using a SpectraMax M2 microplate spectrophotometer. The percentage of cell viability was then calculated using the following equation: [(OD value of cells treated with the compound)−(OD value of culture medium)]/[(OD value of control cells)−(OD value of culture medium)]×100% (FIGS. 6-9).

MDA-231R cells = assay: LC50 by CCK-8 assay, Dox-resistant MDA-231R; format: cell-based
Experimental: (§2) Dox-resistant Cell Lines. Acquired resistance to Dox was induced in wild-type triple-negative breast cancer cell line MDA-MB-231 (MDA-231WT) as described before (Aliabadi, H. M.; et al. J. Control. Release 172:219-228, 2013, which is incorporated herein by reference). Briefly, MDA-231WT cells were exposed to Dox at an initial concentration of 0.05 μg/mL for one week or three consecutive expansions (whichever came later). […] Resistance induction was confirmed via calculation of LC50 following a sigmoidal effect model explained elsewhere (Bousoik, E.; et al. Front. Oncol. 9:1070, 2019, which is incorporated herein by reference) and determination of P-glycoprotein (P-gp) expression.
(§3) The cytotoxicity of the peptide-Dox conjugate in resistant triple-negative breast cancer and uterine sarcoma cell lines (MDA-231R, MDA-231WT, and MES-SA/MX2) was evaluated by a Cell Counting 8 (CCK8) KIT. The peptide-Dox conjugate was added to the cells in triplicate with different concentrations (0-40 μM). Cells were incubated at 37° C. and 5% CO2 for 24 h. After this incubation period, 10 μL of CCK8 reagent was added to each well, and plates were incubated at the same conditions for 2 h. The absorbance of each well was determined at 450 nm using the SpectraMAX M5 microplate reader. After subtracting the signal from blank wells that contain medium without cells in the plate with CCK-8 solution added, the results were normalized to cells treated with normal saline (considered as 100%)
(§4) Efficiency in Dox-Resistant Cells. In order to compare the cytotoxic effect of free and peptide-conjugated Dox in Dox-resistant cells, MDA-231WT (as a Dox-sensitive cell line as control) and MDA-231R and MES-SA/MX2 cells as Dox-resistant cells were exposed to a wide range of Dox (or Dox-equivalent for the peptide-conjugated drug) concentrations (0.05-40 μM). Cells were seeded in 96-well plates with approximately 50% confluency and were incubated for 24 h in 37° C. and 5% CO2. […] The cell viability was determined after this incubation period using the CCK-8 assay, as explained above. […]

H9C2 cells = assay: Cytotoxicity, MTS assay, normal heart muscle cells (Example 1); conditions: 5 μM
Experimental: In Vitro Cytotoxicity Assay of Peptide-Drug Conjugates. The cytotoxicity of the compounds was determined by using human leukemia cell line (CCRF-CEM), human ovarian adenocarcinoma cells (SKOV-3) cells, kidney cell line (LLC-PK1), gastric adenocarcinoma cells (AGS), and heart/myocardium cells (H9C2) to evaluate the toxicity of the generated peptides according to a previously reported procedure (Rahman, A.; et al. Proc. Am. Assoc. Cancer Res. 26:2295-2299, 1985, which is incorporated herein by reference). In brief, CCRF-CEM cells were seeded at 50,000 cells in 0.1 mL per well in 98-well plates. In the case of other cell lines, the cells were seeded at 5,000 cells (0.1 mL per well in 96-well plates). The cells were seeded in medium (RPMI-1640 containing FBS (10%)), 24 h prior to the experiment. The compounds at different concentrations (10-50 μM) were added to each well in triplicate and incubated for 24 and 72 h at 37° C. in a humidified atmosphere of 5% CO2. Dox (5 μM) was used as a positive control, while water and cell culture medium were used as negative controls. The compounds were dissolved in water; water was used as a negative control to normalize the data. After the incubation period, MTS reagent (20 μL) was added to each well. The incubation was continued for 2 h. Cell viability was then determined by determination of the fluorescence intensity at 490 nm using a SpectraMax M2 microplate spectrophotometer.

MCF-7 cells = assay: MTS cytotoxicity assay of [(WR)8WKβA]-Dox, MCF-7; format: cell-based; conditions: 5 μM
Experimental: as §1

CCRF-CEM cells = assay: Cytotoxicity, MTS cell viability assay, CCRF-CEM; conditions: 5 μM
Experimental: as §5

MDA-MB-231 cells = conditions: naïve MDA231 cells, previous study (Aliabadi et al, 2013); cited from earlier work
[3] = system: uterine sarcoma cells (MES-SA/MX2); conditions: 5 μM
Experimental: as §5

SK-OV-3 cells [4] = assay: MTS cytotoxicity assay of [(WR)8WKβA]-Dox, SK-OV-3; conditions: 5 μM, 72 h
Experimental: as §1

MDA-231WT cells = assay: LC50 by CCK-8 assay, wild-type cells; format: cell-based; conditions: MDA-231WT (wild type); FIG. 10: after 72 h
Experimental: as §2, §3, §4

SK-OV-3 cells [5] = assay: Cytotoxicity, MTS cell viability assay, SK-OV-3 (Example 1)
Experimental: as §5

MES-SA/MX2 cells [6] = assay: LC50 by CCK-8 assay, Dox-resistant MES-SA/MX2; format: cell-based; conditions: FIG. 10: after 72 h
Experimental: as §2
as §3, with “Cells were incubated at 37° C. and 5% CO2 for 24 h.” left out, “After subtracting the signal from blank wells that contain medium without cells in the plate with CCK-8 solution added, the results were normalized to cells treated with normal saline (considered as 100%)” left out
Efficiency in Dox-Resistant Cells. […] The cell viability was determined after this incubation period using the CCK-8 assay, as explained above. […]

For `COc1cccc2c1C(=O)c1c(O)c3c(c(O)c1C2=O)C[C@@](O)(C(=O)CO)C[C@@H]3O[C@H]1C[C@H](N)[C@H](O)[C@H](C)O1` [Dox, doxorubicin, reference compound], the “efficiency against MES-SA/MX2” value (MES-SA/MX2 cells [1]; 1 μM, 10 μM, or 20 μM) was “did not show significant efficiency”, the “inhibition of cell viability/proliferation” value (MES-SA/MX2 cells [1]; MES-SA/MX2) was 15% and the “Cell Viability (%) after 24 h” value [2] was 54 ± 2%. The “Cell Viability (%) after 72 h” value [2] was 13 ± 3%, the “reduction of cell survival” value ([2]; 24 h) was 46% and the “reduction of cell survival/viability” value ([2]; 72 h) was 87%. The CC50 (MDA-231R cells; MDA-231R (Dox-resistant), FIG. 10: after 72 h) was 36 µM, the “LC50 in MDA-MB-231R cells, times higher than the naïve cells” value (MDA-231R cells; resistance induction) was “more than 50 times” and the “reduction of cell survival” value (H9C2 cells; H9C2, 24 h) was 20%. The “reduction of cell survival” value (H9C2 cells; H9C2, 72 h) was 44%, the “reduction of cell survival” value (H9C2 cells; H9C2, 96 h) was 44% and the “reduction of viability of heart cells” value (H9C2 cells; H9C2, time not stated) was 44%. For the same molecule, the “Cell Viability (%) after 24 h” value (H9C2 cells; normal heart H9C2) was 80 ± 2%, the “Cell Viability (%) after 72 h” value (H9C2 cells; normal heart H9C2) was 56 ± 3% and the “Cell Viability (%) after 96 h” value (H9C2 cells; normal heart H9C2) was 56 ± 1%. For the same molecule, the “reduction of cell proliferation” value (MCF-7 cells; 24 h) was 21%, the “reduction of cell proliferation” value (MCF-7 cells; 72 h) was 57% and the “Cell Viability (%) after 24 h” value (CCRF-CEM cells) was 48 ± 2%. The “Cell Viability (%) after 72 h” value (CCRF-CEM cells) was 15 ± 3%, the “reduction of cell survival/viability” value (CCRF-CEM cells; 24 h) was 52% and the “reduction of cell survival/viability” value (CCRF-CEM cells; 72 h) was 85%. The LC50 (MDA-MB-231 cells) was 0.3 µg/mL (≈ 0.552 µM), the “Cell Viability (%) after 72 h” value [3] was 119 ± 5% and the “toxicity” value ([3]; 72 h) was “did not show any toxicity”. For the same molecule, the “reduction of cell viability / inhibition of proliferation” value (SK-OV-3 cells [4]) was 35%, the CC50 (MDA-231WT cells) was 0.45 µM and the “Cell Viability (%) after 24 h” value (SK-OV-3 cells [5]; 5 μM) was 73 ± 2%. The “Cell Viability (%) after 72 h” value (SK-OV-3 cells [5]; 5 μM) was 67 ± 3%, the “reduction of cell survival/viability” value (SK-OV-3 cells [5]; 5 μM, 24 h) was 27% and 30% and the “reduction of cell survival/viability” value (SK-OV-3 cells [5]; 5 μM, 72 h) was 33%. For the same molecule, the “Cell Viability (%) after 24 h” value (SK-OV-3 cells [5]; 10 μM) was 71 ± 3%, the “Cell Viability (%) after 72 h” value (SK-OV-3 cells [5]; 10 μM) was 64 ± 1% and the cytotoxicity (SK-OV-3 cells [5]; Dox alone 5 and 10 μM) was 27-36%. The CC50 (MES-SA/MX2 cells [6]) was 41 µM.
